Structures are written as SMILES.

This is an account of results in US11407725B2 (The Board of Trustees of the University of Illinois, priority 2018, dated 2022).

For data set [1], the target named is T1, ALDH1A1 (Homo sapiens, UniProt P00352).
T1 construct: made in house
T1 sequence (P00352 1-501): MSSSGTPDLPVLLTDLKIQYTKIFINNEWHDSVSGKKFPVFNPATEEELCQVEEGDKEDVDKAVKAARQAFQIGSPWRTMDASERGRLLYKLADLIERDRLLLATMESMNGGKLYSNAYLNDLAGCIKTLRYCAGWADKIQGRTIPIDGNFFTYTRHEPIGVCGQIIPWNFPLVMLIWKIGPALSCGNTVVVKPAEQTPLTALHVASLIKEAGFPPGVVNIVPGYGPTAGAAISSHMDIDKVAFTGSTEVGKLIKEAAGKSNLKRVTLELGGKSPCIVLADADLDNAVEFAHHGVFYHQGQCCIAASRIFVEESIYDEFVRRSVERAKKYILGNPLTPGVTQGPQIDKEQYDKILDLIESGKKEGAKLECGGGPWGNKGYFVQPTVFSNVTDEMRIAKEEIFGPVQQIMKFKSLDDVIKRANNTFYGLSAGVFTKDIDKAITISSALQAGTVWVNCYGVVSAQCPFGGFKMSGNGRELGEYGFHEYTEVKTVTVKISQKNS
Nature of the data set: ALDH isoform selectivity of red probes: ALDH1A1. It is filed as biochemical. On the procedure:
(§1) Each ALDH isoform was added to a 50 mM triethanolamine solution (pH 7.4) containing 2.0 mM NAD^+ and 100 μM substrate at room temperature. Benzaldehyde was the substrate for ALDH3A1. Propanal was the substrate for all other isoforms. ALDH isoform activity was determined by monitoring the rate of NADH production through the increase in absorbance at 340 nm (ε=6220 M^−1cm^−1). For these assays, 1 unit is defined as the amount of enzyme that catalyzes the conversion of […] per minute. For every combination of dye and enzyme, 2 μM dye was preincubated with 2.0 mM NAD^+ in 50 mM triethanolamine solution (pH 7.4). The reaction was initiated by addition of 1 unit of ALDH. Dyes were excited at 590 nm, and fluorescence was measured continuously at 610 nm.

Data set [2] deals with ALDH1A2, ALDH2, ALDH3A1, ALDH4A1, and ALDH5A1. Nature of the data set: ALDH isoform selectivity of red-AlDeSense: other isoforms. Type of data set: biochemical, human. The note with it: 2 μM dye. As for the experimental part:
as §1

The nature of data set [3]: Log D7.4. It is filed as physicochemical. The note with it: pH 7.4.
Data set [4] concerns e-CSC and non-CSC B16F0 tumors. In words: In vivo melanoma tumor fluorescence imaging. More on the design: species or system mice. The note with it: 1 and 2 weeks.
Data set [5] relates to MDA-MB-231 mammospheres. Nature of the data set: Mammosphere culture and imaging. Type of data set: cell-based. The note with it: 2 μM dye. As for the experimental part:
Mammosphere formation from MDA-MB-231 breast cancer cells was performed as described previously with some modifications. Cells were resuspended and diluted to a density of 2000 cells/mL in DMEM/F12 (Sigma-Aldrich) supplemented with 2% B27 supplement (Thermo Fisher), 40 ng/mL rhFGF-2 (Miltenyi Biotec), and 20 ng/mL rhEGF (Gibco®). They were plated in ultra-low attachment 6-well plates (Corning) and incubated at 37° C. and 5% CO2 for 5 days or until most mammospheres were between […]. At this point, the mammospheres were transferred to a 4-well chamber slide coated with Poly-L-lysine as described previously. The mammospheres were then either immediately imaged with AlDeSense or Ctrl-AlDeSense, or the media was exchanged with full DMEM media supplement with 10% FBS and non-essential amino acids to allow differentiation over 36 hours.
At various time points, the mammospheres were stained with 2 μM AlDeSense or Ctrl-AlDeSense as described above. Staining continued for 1 h at room temperature before imaging with a wide field fluorescence microscope (Zeiss Axiovert 200M). A GFP filter set was used to excite the fluorophores. Exposure times were set equally for all images taken within a data set and configured to give low signal in Ctrl-AlDeSense stained tumorspheres. Only mammospheres greater than 50 μm in diameter were considered in the analysis.

Data set [6] concerns K562 cells. In words: Flow cytometry of K562 cells stained with AlDeSense. It is filed as cell-based, human. On the procedure: K562 cells were resuspended in PBS to a final concentration of 100,000 cells/mL. The suspension was divided into 0.5 mL aliquots and the cells were collected by centrifugation at 1000 rpm for 5 min at 4° C. Each sample was then resuspended in premixed AlDeSense AM or Ctrl-AlDeSense AM solutions (1.5 μM, PBS). For each dye, triplicate samples were prepared. Cells were incubated with dye for 30 minutes at room temperature with rocking to prevent cell clumping and ensure even dye distribution. At the end of the incubation period, cells were again collected by centrifugation at 1000 rpm for 5 min at 4° C. The dye solution was removed by aspiration, and each sample of cells were resuspended in 0.5 mL of PBS. The samples were immediately placed on ice until analysis. The samples were analyzed by a BD LSR II Flow Cytometry Analyzer using a 488 nm laser and a FITC filter. Data analyzed on FCS Express 6.04.
The day before imaging, Nunc™ Lab-Tek™ Chamber Slide™ systems (Thermo Fisher) were coated with poly-L-lysine (Trevigen) according to manufacturer's instructions. Cells were added to the chamber slides at a concentration of 400,000 cells/mL, yielding 90% confluent cells after 24 h. […] Images were analyzed using ImageJ software (Version 1.5 in).
Background: Flow cytometry measures light scatter and fluorescence of single cells or particles in a stream.

Consider `Cc1cc(C=O)c(F)c(F)c1C1=C2C=CC(=O)C=C2[Si](C)(C)c2cc(O)ccc21`, for which, in data set [1], the “turn-on response when treated with ALDH1A1” value is 3.2 fold. Moreover, in data set [1] (Table 2), the “Enzyme Activity 1A1” value is given as “High”. In data set [1] (Table 2, ALDH1A1, 2 μM dye), the “Enzymatic Turn On” value stood at 3.2. For the same molecule, in data set [2], the “cross-reactivity with ALDH1A2, ALDH2, ALDH3A1, ALDH4A1, ALDH5A1” value is “no cross-reactivity”.
`Cc1cc(C=O)ccc1-c1c2cc(F)c(=O)cc-2oc2cc(O)c(F)cc12` [AlDeSense] yielded a logD in data set [3] of 0.88. The “signal in e-CSC versus non-CSC tumors” value in data set [4] is “consistently higher signal”. Besides, in data set [5], the “brightness of mammospheres versus Ctrl-AlDeSense” value worked out at 3 fold. Further, in data set [6], the “brightness of stained K562 cells versus AlDeSense with inhibitor or Ctrl-AlDeSense” value is recorded as “significantly brighter”.

The logD is the decadic logarithm of the distribution of all forms, ionised or not, between an organic phase and buffer at a given pH. A low value points to a more hydrophilic compound.
